Experimental data reported in patent US9133207B2, “Tetrandrine derivatives with substituted 5-carbon, preparation method and use thereof” (Hangzhou Bensheng Pharmaceutical Co., Ltd., priority 2011, dated 2015).
≈ marks a conversion by molar mass, not a printed value.

Legend:
[1] = tested on: RPMI8226 (multiple myeloma); experiment: Multiple myeloma cell growth inhibition, MTT, 72 h (Example 6); format: cell-based, human; settings: Homo sapiens, RPMI-8226; 72 h, MTT, RPMI8226
Method: Multiple myeloma and lymphoma cell lines: RPMI8226 (multiple myeloma), purchased from Fuxiang Bio-tech Co. Ltd., Shanghai, China.
(§1) Reagents: the same as in Example 5.
(§2) Obtaining 6000 well-growing leukemia cells and inoculating them into wells of a 96-well cell culture plate. The culture medium is a 1640 cell culture medium containing 10% fetal bovine serum. After adding the tetrandrine derivatives of different concentrations and mixing uniformly, placing the plate in a carbon dioxide cell incubator (5% CO2) at 37° C. and incubated for 72 hours. Then the viable cell concentration is determined by the MTT method.

[2] = tested on: Huh7 (human liver cancer cell); experiment: Solid tumor cell growth inhibition, MTT, 72 h (Example 7); format: cell-based; settings: Homo sapiens; 72 h, MTT, Huh-7
Method: (§3) Human solid tumor cell lines: Hep-2 (laryngeal carcinoma), A549 (human lung cancer), CaES-17 (esophageal cancer cell), PC-3 (prostate cancer), CNE (nasopharyngeal carcinoma cell) and SK-OV-3 (ovarian cancer cell), all of which are purchased from China Center For Type Culture Collection; RKO (human colon adenocarcinoma cell), MGC 803 (human gastric cancer cell), MG63 (osteosarcoma), and U87 MG (malignant glioma cell), all of which are purchased from Fuxiang Bio-tech Co. Ltd., Shanghai, China; PANC-1 (pancreatic cancer), Huh? (human liver cancer cell), Becap37 (human breast cancer cell), and Hela (human cervical cancer cell), all of which are donated by Cancer Research Institute of Zhejiang University, China.
as §1
(§4) Obtaining 4000 well-growing human solid tumor cells and inoculating them into wells of a 96-well cell culture plate. The culture medium is DMEM High Glucose cell culture medium containing 10% fetal bovine serum. The plate is placed in a carbon dioxide cell incubator (5% CO2) at 37° C. and incubated for 24 hours. After been added with tetrandrine derivatives of different concentration and mixing uniformly, the plate is placed in a carbon dioxide cell incubator (5% CO2) at 37° C. and incubated for 72 hours. Then the viable cell concentration is determined by the MTT method and the cell viability (%) after drug treatment is calculated. In this experiment, the cell viability of control group (not treated with any compound) is set as 100%.

A549 (human lung cancer) = experiment: as above; format: cell-based; settings: Homo sapiens; 72 h, MTT, A549
Method: as §3, §1, §4

[3] = tested on: Becap37 (human breast cancer cell); experiment: as above; format: cell-based; settings: Homo sapiens; 72 h, MTT, Becap-37
Method: as §3, §1, §4

[4] = tested on: MGC 803 (human gastric cancer cell); experiment: as above; format: cell-based; settings: Homo sapiens
Method: as §3, §1, §4

[5] = tested on: K562/adr (drug-resistant, chronic myeloid leukemia, CML); experiment: Leukemia cell growth inhibition, MTT, 72 h (Example 5); format: cell-based, human; settings: Homo sapiens, K562/Adr; 72 h, MTT
From the text: (§5) Leukemia cell lines: leukemia cell lines: K562/adr (drug-resistant, chronic myeloid leukemia, CML), NB4 (acute promyelocytic leukemia, AML), Kasumi-1 (acute myeloid leukemia M2 type, AML-M2), Jurkat (acute lymphoblastic leukemia, ALL), all of which are donated by Cancer Research Institute of Zhejiang University, China; and H9 (acute lymphoblastic leukemia, ALL), which is purchased from China Center for Type Culture Collection.
(§6) Reagents: The standard sample of tetrandrine (TTD) is purchased from Ci Yuan Biotechnology Co., Ltd., Shaanxi, China; and the 5-substituted tetrandrine derivatives of the present invention.
as §2, with “incubating” for “incubated”

[6] = tested on: H9 (acute lymphoblastic leukemia, ALL); experiment: as above; format: cell-based, human; settings: Homo sapiens; 72 h, MTT
From the text: as §5, §6
as §2, with “incubating” for “incubated”

[7] = tested on: Kasumi-1 (acute myeloid leukemia M2 type, AML-M2); experiment: as above; format: cell-based, human; settings: Homo sapiens, Kasumi 1
From the text: as §5, §6
as §2, with “incubating” for “incubated”

[8] = tested on: Jurkat (acute lymphoblastic leukemia, ALL); experiment: as above; format: cell-based, human; settings: Homo sapiens, Jurkat; 72 h, MTT
From the text: as §5, §6
as §2, with “incubating” for “incubated”

[9] = tested on: PANC-1 (pancreatic cancer); experiment: Solid tumor cell growth inhibition, MTT, 72 h (Example 7); format: cell-based, human; settings: Homo sapiens; 72 h, MTT, PANC-1
Method: as §3, §1, §4

MG63 (osteosarcoma) = experiment: as above; format: cell-based, human; settings: Homo sapiens; 72 h, MTT, MG-63
Method: as §3, §1, §4

PC-3 (prostate cancer) = experiment: as above; format: cell-based, human; settings: Homo sapiens; 72 h, MTT, PC-3
Method: as §3, §1, §4

[10] = tested on: CaES-17 (esophageal cancer cell); experiment: as above; format: cell-based, human; settings: Homo sapiens, CaEs17; 72 h, MTT, CAES-17
Method: as §3, §1, §4

SMILES	IC50 [1]	IC90 [1]	IC50 [2]	IC90 [2]	IC50 (A549 (human lung cancer))	IC90 (A549 (human lung cancer))	IC50 [3]	IC90 [3]	IC50 [4]	IC90 [4]	IC50 [5]	IC90 [5]	IC50 [6]	IC90 [6]	IC50 [7]	IC90 [7]	IC50 [8]	IC90 [8]	IC50 [9]	IC90 [9]	other results
COc1ccc2cc1Oc1ccc(cc1)C[C@H]1c3cc(c(OC)cc3CCN1C)Oc1c(OC)c(OC)c(COC(=O)c3ccccc3)c3c1[C@H](C2)N(C)CC3 [BS-TE-224]	0.27 µg/mL (≈ 0.357 µM)	1.44 µg/mL (≈ 1.9 µM)	2.4 µg/mL (≈ 3.17 µM)	3.93 µg/mL (≈ 5.19 µM)	> 16 µg/mL	> 16 µg/mL	2.85 µg/mL (≈ 3.77 µM)	4.18 µg/mL (≈ 5.52 µM)	2.45 µg/mL (≈ 3.24 µM)	3.72 µg/mL (≈ 4.91 µM)	0.67 µg/mL (≈ 0.885 µM)	4.65 µg/mL (≈ 6.14 µM)	2.99 µg/mL (≈ 3.95 µM)	4.75 µg/mL (≈ 6.28 µM)	3.19 µg/mL (≈ 4.21 µM)	7.36 µg/mL (≈ 9.72 µM)	3.39 µg/mL (≈ 4.48 µM)	7.65 µg/mL (≈ 10.1 µM)	5.68 µg/mL (≈ 7.5 µM)	8.76 µg/mL (≈ 11.6 µM)	IC50 (MG63 (osteosarcoma)): 2.76 µg/mL (≈ 3.65 µM); IC90 (MG63 (osteosarcoma)): 4.51 µg/mL (≈ 5.96 µM); IC50 (PC-3 (prostate cancer)): 6.38 µg/mL (≈ 8.43 µM); IC90 (PC-3 (prostate cancer)): 9 µg/mL (≈ 11.9 µM); IC50 [10]: 2.4 µg/mL (≈ 3.17 µM); IC90 [10]: 7.23 µg/mL (≈ 9.55 µM)
COCc1c2c3c(c(OC)c1OC)Oc1cc4c(cc1OC)CCN(C)[C@H]4Cc1ccc(cc1)Oc1cc(ccc1OC)C[C@@H]3N(C)CC2 [BS-TE-420]	0.29 µg/mL (≈ 0.435 µM)	2.25 µg/mL (≈ 3.37 µM)	4.22 µg/mL (≈ 6.33 µM)	7.06 µg/mL (≈ 10.6 µM)	4.41 µg/mL (≈ 6.61 µM)	12.2 µg/mL (≈ 18.3 µM)	5.6 µg/mL (≈ 8.4 µM)	11.5 µg/mL (≈ 17.2 µM)	5.01 µg/mL (≈ 7.51 µM)	7.56 µg/mL (≈ 11.3 µM)	0.82 µg/mL (≈ 1.23 µM)	3.85 µg/mL (≈ 5.77 µM)	4.4 µg/mL (≈ 6.6 µM)	7.68 µg/mL (≈ 11.5 µM)	2.16 µg/mL (≈ 3.24 µM)	9.83 µg/mL (≈ 14.7 µM)	5.21 µg/mL (≈ 7.81 µM)	16 µg/mL (≈ 24 µM)	> 10 µg/mL	> 10 µg/mL	IC50 (MG63 (osteosarcoma)): 2.72 µg/mL (≈ 4.08 µM); IC90 (MG63 (osteosarcoma)): 9.89 µg/mL (≈ 14.8 µM); IC50 (PC-3 (prostate cancer)): 5.68 µg/mL (≈ 8.52 µM); IC90 (PC-3 (prostate cancer)): 10.9 µg/mL (≈ 16.4 µM); IC50 [10]: 4.72 µg/mL (≈ 7.08 µM); IC90 [10]: 18.9 µg/mL (≈ 28.4 µM)
COc1ccc2cc1Oc1ccc(cc1)C[C@H]1c3cc(c(OC)cc3CCN1C)Oc1c(OC)c(OC)c(CNc3nccs3)c3c1[C@H](C2)N(C)CC3 [BS-TE-320]	0.06 µg/mL (≈ 0.0816 µM)	2 µg/mL (≈ 2.72 µM)	2 µg/mL (≈ 2.72 µM)	3.92 µg/mL (≈ 5.33 µM)	2.98 µg/mL (≈ 4.05 µM)	7.85 µg/mL (≈ 10.7 µM)	1.6 µg/mL (≈ 2.18 µM)	2.17 µg/mL (≈ 2.95 µM)	1.72 µg/mL (≈ 2.34 µM)	2.76 µg/mL (≈ 3.76 µM)	0.84 µg/mL (≈ 1.14 µM)	3.36 µg/mL (≈ 4.57 µM)	1.98 µg/mL (≈ 2.69 µM)	3.36 µg/mL (≈ 4.57 µM)	0.78 µg/mL (≈ 1.06 µM)	3.65 µg/mL (≈ 4.97 µM)	2 µg/mL (≈ 2.72 µM)	6.19 µg/mL (≈ 8.42 µM)	3.52 µg/mL (≈ 4.79 µM)	9.25 µg/mL (≈ 12.6 µM)	IC50 (MG63 (osteosarcoma)): 1.1 µg/mL (≈ 1.5 µM); IC90 (MG63 (osteosarcoma)): 2.18 µg/mL (≈ 2.97 µM); IC50 [10]: 2.11 µg/mL (≈ 2.87 µM); IC90 [10]: 12.2 µg/mL (≈ 16.6 µM)
COc1ccc2cc1Oc1ccc(cc1)C[C@H]1c3cc(c(OC)cc3CCN1C)Oc1c(OC)c(OC)c(COCCn3ccnc3)c3c1[C@H](C2)N(C)CC3 [BS-TE-418]	0.15 µg/mL (≈ 0.201 µM)	2.12 µg/mL (≈ 2.84 µM)	3.08 µg/mL (≈ 4.12 µM)	5.77 µg/mL (≈ 7.73 µM)	4.5 µg/mL (≈ 6.02 µM)	11 µg/mL (≈ 14.8 µM)	1.98 µg/mL (≈ 2.65 µM)	4.4 µg/mL (≈ 5.89 µM)	4.4 µg/mL (≈ 5.89 µM)	6.85 µg/mL (≈ 9.17 µM)	1.53 µg/mL (≈ 2.05 µM)	3.91 µg/mL (≈ 5.23 µM)	2.38 µg/mL (≈ 3.19 µM)	5 µg/mL (≈ 6.69 µM)	1.46 µg/mL (≈ 1.95 µM)	7.46 µg/mL (≈ 9.99 µM)	2.98 µg/mL (≈ 3.99 µM)	13.8 µg/mL (≈ 18.5 µM)	4.57 µg/mL (≈ 6.12 µM)	9.5 µg/mL (≈ 12.7 µM)	IC50 (MG63 (osteosarcoma)): 1.48 µg/mL (≈ 1.98 µM); IC90 (MG63 (osteosarcoma)): 4.45 µg/mL (≈ 5.96 µM); IC50 (PC-3 (prostate cancer)): 4.98 µg/mL (≈ 6.67 µM); IC90 (PC-3 (prostate cancer)): 9.43 µg/mL (≈ 12.6 µM); IC50 [10]: 1.71 µg/mL (≈ 2.29 µM); IC90 [10]: 9.9 µg/mL (≈ 13.3 µM)
